# Results published in ChEMBL document CHEMBL3507680, “University of Dundee, Gates Library screen for HepG2 cell viability”.
# Experiment: Human HepG2 cell viability assay in 384 well format
# Type: toxicity, cell-based
# Design: dose 125 nL, time 70.5 hour; cytotoxicity at 70.5 h: concentration not given beside the values
# Conditions: HepG2 cells, read-out: Inhibition
row,Structure (SMILES),cytotoxicity at 70.5 h
1,Cc1nc(CNC(=O)NC2CCCN(c3ncccn3)C2)cs1 (configuration not stated),-14.1%
2,Cc1ncc(CNCC(=O)NC2CCCCC2)n1-c1ccccc1,9.11%
3,O=C(c1cscn1)N1CCC2(CCN(Cc3cccs3)CC2)C1,-6.38%
4,O=C(Nc1ccccc1)[C@H]1C[C@@H]2CN(S(=O)(=O)C3CC3)C[C@H]1O2,-14.4%
5,COCC(=O)N1CCCN(c2ncnc3c2CCNCC3)CC1,-5.03%
6,CCc1c(C)nc(-n2nc(C3CC3)cc2NC(C)=O)[nH]c1=O,1.53%
7,CCS(=O)(=O)N1Cc2ncn(CC3CC3)c2C(COCC2CC2)C1 (configuration not stated),1.64%
8,CC1CCN(Cc2cnc(S(=O)(=O)CC3CC3)n2CC2CCCO2)CC1 (configuration not stated),11.8%
9,N[C@@H]1CCN(Cc2cc(-c3ccccc3OC(F)(F)F)no2)C[C@H]1O,-10.6%
10,CN1CCN(Cc2cccnc2)C2(CCN(Cc3ccoc3)C2)C1=O (configuration not stated),20.4%
11,O=C(NCCCc1nnc2ccccn12)c1ccccc1C1CCNC1 (configuration not stated),-0.698%
12,COc1cccc(C2SCC(=O)Nc3n[nH]cc32)c1OC(C)C (configuration not stated),-20.4%
13,COCCN1Cc2ccnn2CC(COCc2cccnc2)C1 (configuration not stated),-5.12%
14,CC(C)(O)CN1CCN(C(=O)c2ccn(-c3cccc(F)c3)n2)CC1,-4.39%
15,Cc1cc(N2CCc3c(nc(C(C)C)n3C)C2)nc(N)n1,-10.6%
16,CCc1nc(C(=O)N2CC(C(C)C)Nc3ccccc32)c[nH]1 (configuration not stated),-7.98%
17,Cc1cc(CN(C)C(=O)NC2CCN(Cc3ccccc3)C2)no1 (configuration not stated),7.2%
18,Cc1nc(NC2(CN3CCCCC3)CCCCC2)c2cnn(C)c2n1,-18.3%
19,Cc1cnc(C(=O)N2CCc3c(nc(-c4ccncc4)[nH]c3=O)C2)cn1,-3.01%
20,O=C(O)c1cccnc1CN(Cc1ccsc1)C1CC1,-6.7%
21,CC(NC(=O)c1cccc[n+]1[O-])c1ccc2c(c1)CCC(=O)N2 (configuration not stated),-3.74%
22,CS(=O)(=O)N1CC2(CCCN(C3COC3)C2)Cc2ccccc21 (configuration not stated),-3.97%
23,Cc1nc(C2CCNCC2)cc(N(C)Cc2cc3cc(F)ccc3[nH]2)n1,-1.29%

row,Structure (SMILES),cytotoxicity at 70.5 h
1,CC(=O)c1ccc(C(=O)N2C[C@@H]3CC[C@H](C2)N(Cc2ccccc2)C3)s1,4.96%
2,CC(=O)c1ccc(C(=O)N2C[C@@H](CN3CCCC3)[C@@H](CO)C2)cc1,12.4%
3,COc1ccc(C(CO)NC(=O)Nc2cccc(C(C)=O)c2)cc1 (configuration not stated),-6.17%
4,Cc1nc(N2CCN(C(=O)c3ccncc3)CC2)c2c(n1)c(C)nn2C,19.4%
5,Cc1nc(NC(=O)OC(C)(C)C)sc1C(N)=O,-2.34%
6,Cc1nc(N(C)C)nc2c1COCC21CCN(C(=O)C2CC2)C1 (configuration not stated),-3.72%
7,Cc1cnn(CCNCc2c(C)nn(CCO)c2C)c1,2.83%
8,CCC(Oc1ccc(N(C)S(C)(=O)=O)cc1)C(N)=O (configuration not stated),-5.31%
9,CCN1CC2(CCC1=O)CCN(Cc1cccc(C#N)c1)CC2,-4.47%
10,CCC1=N[C@@]2(CC[C@@H]3CN(C(=O)NCc4cccc(F)c4)C[C@@H]32)C(=O)N1,-5.99%
11,Cc1ccc(-c2ccc(=O)n(CC(=O)Nc3nccs3)n2)cc1,-4.07%
12,COc1cc(Cl)cc(CN2CCCC(N3CCCC3)C2)c1OC (configuration not stated),-14.7%
13,O=C1CSC(c2ccc(Cl)cc2Cl)c2c(n(C3CCOCC3)[nH]c2=O)N1 (configuration not stated),-23.1%
14,Cn1ccnc(Nc2ccc3c(c2)CCN3C(=O)c2cccnc2)c1=O,-11.5%
15,Cn1c(-c2ccccc2Cl)nc2cc(C(=O)NCC3(C)COC3)cnc21,4.56%
16,CN1CCN(CCCNCc2cc(O)c3cc(F)ccc3n2)CC1,-4.99%
17,COc1ccc(CN2CCC3(CC(C(=O)NCC(C)C)=NO3)C2)cc1 (configuration not stated),-6.44%
18,O=C([C@@H]1CCO[C@@H]2CCN(CCc3ccccc3)C[C@@H]21)N1CCCC1,15.3%
19,CCc1noc(C(C)N2CCN(CC(C)C)CC2)n1 (configuration not stated),12.8%
20,CN(C)c1ncccc1C(=O)N1CCCN(c2cccnn2)CC1,-6.59%
21,COc1cc(C(=O)N2CCC(c3n[nH]c(C)n3)CC2)cc(OC)c1C,-3.07%
22,Cc1cnn(CC2CCCCN2Cc2nccn2CC(F)(F)F)c1 (configuration not stated),4.47%
23,Cc1cccc(OCCC(=O)N(C)CCNS(C)(=O)=O)c1C,0.181%

row,Structure (SMILES),cytotoxicity at 70.5 h
1,CCC1CN(Cc2cccc(C(=O)N(C)C)c2)CCN1CCOC (configuration not stated),-8.03%
2,NC(=O)c1cnn2c1NCC(CNCCCc1ccccc1)C2 (configuration not stated),-6.83%
3,CCOCC(=O)N1CCC(CSCc2ccco2)CC1,-10.8%
4,O=C1C(NS(=O)(=O)c2ccc(F)cc2F)CCN1Cc1ccccc1 (configuration not stated),-7.99%
5,Cc1noc(C)c1CNCC1Cn2nncc2CO1 (configuration not stated),-2.84%
6,CCc1cc(N2CCN(C(C)=O)CC2)n2nc(C)c(C)c2n1,10.6%
7,O=C(NC1CCCCC1)N1CCc2onc(COc3cccnc3)c2C1,-6.55%
8,COCCn1/c(=N\C(=O)CN(C)S(C)(=O)=O)sc2cc(Cl)ccc21,17%
9,Cn1ncc(N2CCOC(CCNC(=O)N3CCCCC3)C2)cc1=O (configuration not stated),-6.9%
10,O=C(Nc1ccc2c(c1)OCCO2)c1ccc(=O)[nH]n1,15.5%
11,Cc1cnn(CC2CN(CCS(=O)(=O)C(F)(F)F)CCO2)c1 (configuration not stated),23.8%
12,CC(C)n1nccc1C(=O)N1CCC(c2nnsc2S(C)(=O)=O)CC1,-6.33%
13,Cc1cc(C)n(CCNCc2cc(-c3ccc(F)cc3)c[nH]c2=O)n1,1.4%
14,CC(C)c1noc(CCCC(=O)N2CCN(S(C)(=O)=O)CC2)n1,-5.72%
15,Cc1nccn1-c1ccc(C(C)Nc2cnn(C)c(=O)c2Cl)cc1 (configuration not stated),9.7%
16,COc1ccc(C(=O)Nc2ccc3c(c2)C(=O)NC3)cc1Br,-5.4%
17,Cc1cccc(OC2CCN(c3nc(N)nc4[nH]cnc34)CC2)c1,-1.39%
18,Cc1noc2ncc(S(=O)(=O)Nc3cc(CC(C)(C)C)[nH]n3)cc12,3.8%
19,Cc1cc(C(=O)NC(C)Cc2ccccc2Cl)n(C)n1 (configuration not stated),-7.08%
20,Cc1nc(N(C)C)cc(C2(C)CCCNC2)n1 (configuration not stated),-2.1%
21,CC(CN1CCOCC1)NC(=O)NCc1ccoc1 (configuration not stated),4.07%
22,O=C(NCC1CC1)C1CCC2(CCN(C(=O)c3ccncc3)CC2)O1 (configuration not stated),10.5%
23,Fc1cccc(-n2ccc(CN3CCCC3Cn3cccn3)n2)c1 (configuration not stated),-14.3%

row,Structure (SMILES),cytotoxicity at 70.5 h
1,O=C(NC1CC1)N1CCc2ncc(CN3CCOCC3)n2CC1,-16%
2,COc1ccccc1-c1ncc(CN2C[C@H](O)[C@@H](N3CCCC3)C2)s1,-14.6%
3,Cn1cc(C(=O)Nc2ccc(CC(=O)NC3CC3)cc2)nn1,-6.27%
4,O=C(NCC1(N2CCOCC2)CCSC1)Nc1cn[nH]c1 (configuration not stated),-10.2%
5,CCc1csc(CNCC(=O)Nc2ccc(Cl)c(C)c2)n1,-6.59%
6,CC1CCN(C(=O)CN2CC(c3nc(C4CC4)no3)C2)CC1,23.6%
7,Cc1nc(-c2ccccc2)n(CC(=O)NCC(C)C)n1,-3.55%
8,CN1CCN(C(=O)c2ccc(Cn3cc(Br)cn3)cc2)CC1,-5.22%
9,Cc1cc(S(=O)(=O)N(C)CC(N)=O)ccc1Br,-2.54%
10,c1cnc(NC2COC3(CCN(Cc4ccoc4)CC3)C2)nc1 (configuration not stated),-97.7%
11,O[C@@H]1C[C@@](CNCc2ccccn2)(COc2cccnc2)C[C@@H]1O,-8.64%
12,CCc1ccc2c(c1)C(CCNC(=O)c1sccc1C)C(=O)N2 (configuration not stated),-3.5%
13,c1cncc(CN2CCCCC2c2ccc(Nc3cnccn3)nc2)c1 (configuration not stated),-5.32%
14,COc1cccc(CN2CCN(c3cccc(C(C)C)n3)CC2)c1F,-0.272%
15,CCOCC1CN(C(=O)N(C)C)Cc2nnn(CC3CC3)c21 (configuration not stated),4.98%
16,C[C@@H]1CN(c2nc3c(cc2C(N)=O)CCC3)C[C@]1(C)O,-15%
17,CN1CC(=O)N(c2cccc(F)c2)CC12CCN(Cc1cnn(C)c1)C2 (configuration not stated),4.08%
18,CC(=O)N1CCCN(C(=O)c2ccc(Cn3ccccc3=O)o2)CC1,2.33%
19,COc1c(CNCc2cccc(C(=O)N(C)C)c2)c(C)nn1C,5.09%
20,COc1ncccc1CN1CCC2(CC1)CN(c1ccccn1)CCO2,-6.12%
21,COCCN1CCc2ncnc(-c3ccccc3)c2CC1,-5.42%
22,c1cc(-c2nnn3c2COC(CNCc2nccs2)C3)ccn1 (configuration not stated),-0.24%
23,Cc1ccc(CN2CCO[C@H]3[C@H](OCc4cccnc4)CC[C@@H]32)o1,36.8%

row,Structure (SMILES),cytotoxicity at 70.5 h
1,CCOc1c(Br)cc(CNC(C)c2nnc3n2CCC3)cc1OC (configuration not stated),-4.89%
2,CN(Cc1ccc(C(=O)NCC2COCCO2)c(=O)[nH]1)CC(C)(C)C (configuration not stated),6.27%
3,CNC(=O)c1cc2c(nc1NCC1CC1)CCNCC2,4.29%
4,Cc1ncsc1C(=O)N(C)CCc1ccncc1,-2.51%
5,CCc1cccc(N2CCC(NC(=O)C3CCC3)CC2)c1,-6.88%
6,O=c1c(CN2CCCCCC2)coc(O)c1CN1CCOCC1,-2.1%
7,CCC(O)CN1CCN(C(=O)Cc2ccc(C)nc2)CC1 (configuration not stated),-0.788%
8,COc1cccn(CC(=O)N2CCCC3(CCOCC3)C2)c1=O,-1.15%
9,CC(C)CC(CC(C)C)NC(=O)c1ccn(C)c(=O)c1,1.9%
10,CC1=C(C(=O)N(C)Cc2n[nH]c3c2CCCCC3)C(C)NC(=O)N1 (configuration not stated),31%
11,Cc1cc(CNC(=O)CC2CCN(C(C)C)CC2)n(C)n1,16.3%
12,CCN(CC1CCOC1)C(=O)c1ccn(-c2cc(C)ccc2OC)n1 (configuration not stated),-2.72%
13,CN(C)Cc1cnc(CC2CCN(CCc3ccccc3)CC2)cn1,0.387%
14,O=C(Nc1ccc(-c2csnn2)cc1)N1CCC(N2CCCC2)C1 (configuration not stated),-14.2%
15,COc1cccc(C(=O)N2CCc3nc(C4CCCN4)ncc3C2)c1 (configuration not stated),-1.65%
16,Cc1noc(C)c1CN(C)Cc1csc(-c2ccc(C(C)C)cc2)n1,19.9%
17,Cc1nonc1CN1CC[C@@](O)(C2CCC2)[C@H](C)C1,-3.97%
18,Cn1cnc(-c2ccc(F)cc2)c1NC(=O)CCNC(=O)C(C)(C)C,-7.61%
19,CCN(CC)C(=O)Cn1ccc2cc(NC(=O)C3CCCO3)ccc21 (configuration not stated),7.81%
20,COCCN1CCCC(c2cncc(Oc3ccccc3OC)n2)C1 (configuration not stated),-3.1%
